Measurements from US5451581A, “Antibiotic LL-14E605β and O-methyl-LL-14E605β” (priority 1993, dated 1995).

What was measured:
[1] = system: Staphylococcus aureus (ID-2727); test: In vitro antibacterial activity, standard agar dilution (MIC); type: cell-based; conditions: Mueller-Hinton agar, about 18 hours, approximately 35° C.
Experimental: (§1) The in vitro antibacterial activity of LL-14E605β and O-methyl-LL-14E605β is determined against a spectrum of gram positive and gram-negative bacteria by a standard agar dilution method. Mueller-Hinton agar containing two fold decreasing concentrations of the antibiotics is poured into petri plates. The agar surfaces are inoculated with 1 to 5×10^4 colony forming units of bacteria by means of a Steer's replicating device. The lowest concentration of the LL-14E605 antibiotics that inhibits growth of a bacterial strain after about 18 hours of incubation at approximately 35° C. is recorded as the minimal inhibitory concentration (MIC) for that strain.

[2] = system: Morganella morganii (VGH 84-11); test: as above; type: cell-based; conditions: Mueller-Hinton agar, about 18 hours, approximately 35° C.
Experimental: as §1

[3] = system: Enterococcus avium (ID-3953); test: as above; type: cell-based; conditions: Mueller-Hinton agar, about 18 hours, approximately 35° C.
Experimental: as §1

[4] = system: Enterococcus faecium (12202); test: as above; type: cell-based; conditions: Mueller-Hinton agar, about 18 hours, approximately 35° C.
Experimental: as §1

[5] = system: Staphylococcus, coagiuase negative (ID-4615); test: as above; type: cell-based; conditions: Mueller-Hinton agar, about 18 hours, approximately 35° C.
Experimental: as §1

[6] = system: Enterococcus faecalis (ID-2131); test: as above; type: cell-based; conditions: Mueller-Hinton agar, about 18 hours, approximately 35° C.
Experimental: as §1

[7] = system: Staphylococcus aureus (4379); test: as above; type: cell-based; conditions: Mueller-Hinton agar, about 18 hours, approximately 35° C.
Experimental: as §1

[8] = system: Staphylococcus aureus (ATCC 29213); test: as above; type: cell-based; conditions: Mueller-Hinton agar, about 18 hours, approximately 35° C.
Experimental: as §1

[9] = system: Enterococcus faecalis (12201); test: as above; type: cell-based; conditions: Mueller-Hinton agar, about 18 hours, approximately 35° C.
Experimental: as §1

[10] = system: Escherichia coli (ATCC 25922); test: as above; type: cell-based; conditions: Mueller-Hinton agar, about 18 hours, approximately 35° C.
Experimental: as §1

[11] = system: Staphylococcus, coagluase negative (ID-3941); test: as above; type: cell-based; conditions: Mueller-Hinton agar, about 18 hours, approximately 35° C.
Experimental: as §1

[12] = system: Staphylococcus, coagluase negative (ID-3276); test: as above; type: cell-based; conditions: Mueller-Hinton agar, about 18 hours, approximately 35° C.
Experimental: as §1

[13] = system: Pseudomanas aeruginosa (ATCC 27853); test: as above; type: cell-based; conditions: Mueller-Hinton agar, about 18 hours, approximately 35° C.
Experimental: as §1

[14] = system: Staphylococcus hemolyticus (ID 4061); test: as above; type: cell-based; conditions: Mueller-Hinton agar, about 18 hours, approximately 35° C.
Experimental: as §1

[15] = system: Micrococcus luteus (ATCC 9341); test: as above; type: cell-based; conditions: Mueller-Hinton agar, about 18 hours, approximately 35° C.
Experimental: as §1

Bacillus cereus (Bacto) = test: as above; type: cell-based; conditions: Mueller-Hinton agar, about 18 hours, approximately 35° C.
Experimental: as §1

[16] = system: Staphylococcus aureus (NEMC-89-4); test: as above; type: cell-based; conditions: Mueller-Hinton agar, about 18 hours, approximately 35° C.
Experimental: as §1

Escherichia coli (J2445) = test: as above; type: cell-based; conditions: Mueller-Hinton agar, about 18 hours, approximately 35° C.
Experimental: as §1

Escherichia coli (J2175) = test: as above; type: cell-based; conditions: Mueller-Hinton agar, about 18 hours, approximately 35° C.
Experimental: as §1

[17] = system: Enterococcus faecalis (ID-1829); test: as above; type: cell-based; conditions: Mueller-Hinton agar, about 18 hours, approximately 35° C.
Experimental: as §1

[18] = system: Enterococcus faecalis (ATCC 29212); test: as above; type: cell-based; conditions: Mueller-Hinton agar, about 18 hours, approximately 35° C.
Experimental: as §1

[19] = system: Enterococcus faecium (ID-3301); test: as above; type: cell-based; conditions: Mueller-Hinton agar, about 18 hours, approximately 35° C.
Experimental: as §1

[20] = system: Staphylococcus aureus (SMITH); test: as above; type: cell-based; conditions: Mueller-Hinton agar, about 18 hours, approximately 35° C.
Experimental: as §1

[21] = system: Staphylococcus aureus (ID-2371); test: as above; type: cell-based; conditions: Mueller-Hinton agar, about 18 hours, approximately 35° C.
Experimental: as §1

[22] = system: Staphylococcus, coagluase negative (ID-3120); test: as above; type: cell-based; conditions: Mueller-Hinton agar, about 18 hours, approximately 35° C.
Experimental: as §1

[23] = system: Staphylococcus aureus (ID-3105); test: as above; type: cell-based; conditions: Mueller-Hinton agar, about 18 hours, approximately 35° C.
Experimental: as §1

[24] = system: Enterococcus faecalis (ID-4168); test: as above; type: cell-based; conditions: Mueller-Hinton agar, about 18 hours, approximately 35° C.
Experimental: as §1

[25] = system: Staphylococcus, coagluase negative (ID-3135); test: as above; type: cell-based; conditions: Mueller-Hinton agar, about 18 hours, approximately 35° C.
Experimental: as §1

[26] = system: Enterococcus faecium (ID-4133); test: as above; type: cell-based; conditions: Mueller-Hinton agar, about 18 hours, approximately 35° C.
Experimental: as §1

[27] = Relative activity of the components of the LL-14E605 complex; conditions: listed as LL-14E605β

Row | Minimal Inhibitory Concentration (MIC) [1] [µg/mL] | Minimal Inhibitory Concentration (MIC) [2] [µg/mL] | Minimal Inhibitory Concentration (MIC) [3] [µg/mL] | Minimal Inhibitory Concentration (MIC) [4] [µg/mL] | Minimal Inhibitory Concentration (MIC) [5] [µg/mL] | Minimal Inhibitory Concentration (MIC) [6] [µg/mL] | Minimal Inhibitory Concentration (MIC) [7] [µg/mL] | Minimal Inhibitory Concentration (MIC) [8] [µg/mL] | Minimal Inhibitory Concentration (MIC) [9] [µg/mL] | Minimal Inhibitory Concentration (MIC) [10] [µg/mL] | Minimal Inhibitory Concentration (MIC) [11] [µg/mL] | Minimal Inhibitory Concentration (MIC) [12] [µg/mL] | Minimal Inhibitory Concentration (MIC) [13] [µg/mL] | Minimal Inhibitory Concentration (MIC) [15] [µg/mL] | Minimal Inhibitory Concentration (MIC) (Bacillus cereus (Bacto)) [µg/mL] | Minimal Inhibitory Concentration (MIC) [16] [µg/mL] | Minimal Inhibitory Concentration (MIC) (Escherichia coli (J2445)) [µg/mL] | Minimal Inhibitory Concentration (MIC) (Escherichia coli (J2175)) [µg/mL] | Minimal Inhibitory Concentration (MIC) [17] [µg/mL] | SMILES | Minimal Inhibitory Concentration (MIC) [14] [µg/mL] | also measured
1 | 0.008 | > 64 | 0.002 | 0.004 | 0.015 | 0.015 | 0.015 | 0.015 | 0.015 | > 64 | 0.06 | 0.008 | > 64 | 0.002 | 0.06 | 0.015 | 0.06 | > 64 | 0.002 | COC(C)=C1NC(=O)C(C(C)O)NC(=O)c2csc(n2)-c2cc(O)c(-c3nc(C(N)=O)cs3)nc2-c2csc(n2)C2CSC(=O)c3[nH]c4cccc5c4c3COC(C(OC3CC(C)(O)C(N(C)C)C(C)O3)C(=O)OC5)C(NC(=O)c3csc1n3)c1nc(cs1)C(=O)N2 (stereo not drawn) [LL-14E605-beta] | 0.03 | Minimal Inhibitory Concentration (MIC) [18]: 0.015 µg/mL; Minimal Inhibitory Concentration (MIC) [19]: 0.015 µg/mL; Minimal Inhibitory Concentration (MIC) [20]: 0.008 µg/mL; Minimal Inhibitory Concentration (MIC) [21]: 0.015 µg/mL; Minimal Inhibitory Concentration (MIC) [22]: 0.06 µg/mL; Minimal Inhibitory Concentration (MIC) [23]: 0.015 µg/mL; Minimal Inhibitory Concentration (MIC) [24]: 0.015 µg/mL; Minimal Inhibitory Concentration (MIC) [25]: 0.03 µg/mL; Minimal Inhibitory Concentration (MIC) [26]: ≤ 0.005 µg/mL; activity relative to the other components of the LL-14E605 complex [27]: most active component of the LL-14E605 complex
2 | 0.25 | > 32 | 8 | 8 | 0.25 | 4 | 0.25 | 0.25 | 4 | > 32 | 4 | 0.5 | > 32 | 0.5 | 0.5 | 0.5 | > 32 | > 32 | 8 | COC(C)=C1NC(=O)C(C(C)O)NC(=O)c2csc(n2)-c2cc(OC)c(-c3nc(C(N)=O)cs3)nc2-c2csc(n2)C2CSC(=O)c3[nH]c4cccc5c4c3COC(C(OC3CC(C)(O)C(N(C)C)C(C)O3)C(=O)OC5)C(NC(=O)c3csc1n3)c1nc(cs1)C(=O)N2 [O-methyl-L-14E605beta] | 1 | Minimal Inhibitory Concentration (MIC) [18]: 8 µg/mL; Minimal Inhibitory Concentration (MIC) [19]: 8 µg/mL; Minimal Inhibitory Concentration (MIC) [20]: 0.25 µg/mL; Minimal Inhibitory Concentration (MIC) [21]: 0.5 µg/mL; Minimal Inhibitory Concentration (MIC) [22]: 1 µg/mL; Minimal Inhibitory Concentration (MIC) [23]: 0.25 µg/mL; Minimal Inhibitory Concentration (MIC) [24]: 8 µg/mL; Minimal Inhibitory Concentration (MIC) [25]: 1 µg/mL; Minimal Inhibitory Concentration (MIC) [26]: 8 µg/mL
